Here are results for 10 compounds from ChEMBL document CHEMBL1146589, “Potential cncer chemopreventive flavonoids from the stems of Tephrosia toxicaria” (J Nat Prod, 2003).

The IC50 is the point on the concentration scale where inhibition reaches its midpoint. A high value points to a need for much substance.

The nature of assay [1]: Inhibition of mouse Hepa-1c1c7 cells by MTT assay. Type of assay: cell-based. For orientation: Tetrazolium dyes change colour on reduction, which living cells bring about.
Assay [2] can be described thus: Inhibition of 7,12-dimethylbenz[a]anthracene-induced preneoplastic lesions in a mouse mammary gland culture at 10 ug/mL. The format is functional.
The nature of assay [3]: Chemoprevention index, ratio of IC50 for mouse Hepa-1c1c7 cells to drug level required to double NADPH:quinone reductase activity in mouse Hepa-1c1c7 cells. The format is functional.
The next assay is described as follows: tissue or blood. Particulars: Mus musculus, Mammary gland, read-out: INH.

Description for tissue or blood: Inhibition of 7,12-dimethylbenz[a]anthracene-induced preneoplastic lesions in a mouse mammary gland culture at 1 ug/mL

In assay [1], `COc1cc2c(cc1OC)-c1c(oc3c4c(cc(O)c3c1=O)OC(C)(C)C=C4)CO2` displayed an IC50 above 47 µM. Also, in assay [2], the inhibition at 10 µg/mL came to 19%.

As to `COc1cc2c(cc1OC)[C@]1(O)C(=O)c3c(O)cc4c(c3O[C@@H]1CO2)C=CC(C)(C)O4`, in assay [1], the IC50 is above 47 µM. The compound further yielded an inhibition at 10 µg/mL in assay [2] of 60%.

In turn, `COc1cc(O)c2c(c1/C=C/C(C)=O)O[C@H](c1ccccc1)CC2=O` came in with an IC50 in assay [1] above 14.9 µM. For the same compound, the Ratio in assay [3] is given as above 1.4. The compound also displayed an inhibition at 10 µg/mL in assay [2] of 0%.

`COc1cc2c(cc1OC)[C@]1(O)C(=O)c3c(O)cc4c(c3O[C@@H]1CO2)C(OC)C(O)C(C)(C)O4` (stereo partly drawn) yielded an IC50 in assay [1] of 9.1 µM. Further, the Ratio in assay [3] worked out at 1.4.

In the case of `COc1cc(-c2cc(=O)c3c(O)cc(O)cc3o2)ccc1O` [CHRYSOERIOL], the concentration for half-maximal inhibition (IC50) in assay [1] was determined as 36 µM. The Ratio in assay [3] is recorded as 3.1.

In turn, `O=c1c(-c2ccc(O)cc2)coc2cc(O)cc(O)c12` [GENISTEIN] came in with an IC50 in assay [1] of 45.2 µM. For the same compound, in assay [3], the Ratio is recorded as 2.

Consider `O=C(/C=C/c1ccc(O)cc1)c1ccc(O)cc1O` [ISOLIQUIRITIGENIN], for which the 50% inhibitory concentration (IC50) in assay [1] came to 36.3 µM. For the same compound, in assay [3], the Ratio came to 10.1. The same compound yielded an inhibition at 10 µg/mL in assay [2] of 76%.

`C[S+]([O-])CCCCN=C=S` (stereo not drawn) [SULFORAPHANE] had an IC50 in assay [1] of 11 µM. The Ratio in assay [3] came to 25. Further, the inhibition at 1 µg/mL in the assay “tissue or blood” worked out at 83.7%.

As for `C=C(C)[C@H]1Cc2c(cc(O)c3c2O[C@@H]2COc4cc(OC)c(OC)cc4[C@@H]2C3=O)O1` [SUMATROL], in assay [1], the IC50 was above 47 µM. Further, the inhibition at 10 µg/mL in assay [2] stood at 49.9%.

Turning to `COc1cc2c(cc1OC)[C@@H]1C(=O)c3c(O)cc4c(c3O[C@@H]1CO2)C=CC(C)(C)O4` [TOXICAROL], in assay [1], the IC50 was above 47 µM. Also, in assay [2], the inhibition at 10 µg/mL is 80%.
